Results reported in patent US6617350B2, “Inhibitors of aspartyl protease” (priority 1999, dated 2003).
Where two headings read alike, the source gives them in different places.

Columns and labels:
[1] = system: HIV-1 (strain IIIB); test: microbe, parasite or virus in culture; assay type: cell-based; settings: anti-viral potency in MT-4 cells, read-out: IC50
[2] = molecular target: HIV-1 protease (Human immunodeficiency virus type 1 group M subtype B, UniProt P04585); test: biochemical
[3] = Table 12, HIV-1 protease, read-out: Ki
[4] = Human immunodeficiency virus 1, IIIB, MT4, Table 12

Structure (SMILES): COc1ccc(S(=O)(=O)N(C[C@@H](O)[C@H](Cc2ccccc2)NC(=O)C(C)CS(C)(=O)=O)CC(C)(C)CCC#N)cc1 (stereo partly drawn) [Compound 22, 1N-(3-Methylsulfonylisobutyryl)-(1S,2R)-1-benzyl-3-(4-cyano-2,2-dimethylbutyl)[4-methoxyphenylsulfonyl]amino-2-hydroxypropyl amine]
- IC50 ([1]; Table 12): 100 to 500 nM
- Ki [2, 3]: < 1 nM

Structure (SMILES): CC(C)(CCC#N)CN(C[C@@H](O)[C@H](Cc1ccccc1)NC(=O)OC1COCOC1)S(=O)(=O)c1ccc(O)cc1 [Compound 42, {(1S,2R)-1-Benzyl-3-[(4-cyano-2,2-dimethyl-butyl)-(4-hydroxybenzenesulfonyl)-amino]-2-hydroxy-propyl}-carbamic acid[1,3]dioxan-5-yl ester]
- IC50 [1, 4]: 100 to 500 nM
- Ki [2, 3]: < 1 nM

Structure (SMILES): CC(C)(CCC#N)CN(C[C@@H](O)[C@H](Cc1ccccc1)NC(=O)OC1COCOC1)S(=O)(=O)c1ccc2c(c1)OCO2 [Compound 36, {(1S,2R)-3-[(Benzo[1,3]dioxole-5-sulfonyl)-(4-cyano-2,2-dimethyl-butyl)-amino]-1-benzyl-2-hydroxy-propyl}-carbamic acid[1,3]dioxan-5-yl ester]
- IC50 [1, 4]: ≤ 100 nM
- Ki [2, 3]: < 1 nM

Structure (SMILES): CN(C)C(=O)NCCCC(C)(C)CN(CC(O)C(Cc1ccccc1)NC(=O)OC1COC2OCCC12)S(=O)(=O)c1ccc2c(c1)OCO2 [Compound 266, (3R,3aS,6aR)hexahydrofuro[2,3-b]furan-3-yl N-(1S,2R)-3-[(1,3-benzodioxol-5-ylsulfonyl)(5-[(dimethylamino)carbonyl]amino-2,2-dimethylpentyl)amino]-1-benzyl-2-hydroxypropylcarbamate]
- IC50 [1, 4]: ≤ 100 nM
- Ki [2, 3]: < 1 nM

Structure (SMILES): COc1ccc(S(=O)(=O)N(CCC#N)C[C@@H](O)[C@H](Cc2ccccc2)NC(=O)O[C@H]2CO[C@H]3OCC[C@H]32)cc1 [Compound 124, {(1S,2R)-3-[(4-methoxybenzenesulfonyl)-(2-cyanoethyl)-amino]-1-benzyl-2-hydroxy-propyl}-carbamic acid (3R,3aS,6aR)hexahydro-furo[2,3-b]furan-3-yl ester]
- IC50 [1, 4]: ≤ 100 nM
- Ki [2, 3]: < 1 nM

Structure (SMILES): CCOC(=O)CNC(=O)NCCCC(C)(C)CN(CC(O)C(Cc1ccccc1)NC(=O)OC1COC2OCCC12)S(=O)(=O)c1ccc(OC)cc1 (mixture of isomers) [Compound 216, Ethyl (3S,4R)-1-[(3R,3aS,6aR)hexahydrofuro[2,3-b]furan-3-yloxy]-3-benzyl-4-hydroxy-6-[(4-methoxyphenyl)sulfonyl]-8,8-dimethyl-1,13-dioxo-2,6,12,14-tetraazahexadecan-16-oate and Ethyl (3S,4R)-1-[(3S,3aR,6aS)hexahydrofuro[2,3-b]furan-3-yloxy]-3-benzyl-4-hydroxy-6-[(4-methoxyphenyl)sulfonyl]-8,8-dimethyl-1,13-dioxo-2,6,12,14-tetraazahexadecan-16-oate]
- IC50 [1, 4]: ≤ 100 nM
- Ki [2, 3]: < 1 nM

Structure (SMILES): COc1ccc(S(=O)(=O)N(C[C@@H](O)[C@H](Cc2ccccc2)NC(=O)O[C@H]2CCOC2)CC(C)(C)CCCC#N)cc1 [Compound 18, (3S)-Tetrahydro-3-furanyl N-((1S,2R)-1-benzyl-3-(5-cyano-2,2-dimethylpentyl)[(4-methoxyphenyl)sulfonyl]amino-2-hydroxypropyl)carbamate]
- IC50 [1, 4]: 100 to 500 nM
- Ki [2, 3]: < 1 nM

Structure (SMILES): CN(C)C(=O)NCCCC(C)(C)CN(CC(O)C(Cc1ccccc1)NC(=O)OC1COC2OCCC12)S(=O)(=O)c1ccc2c(c1)OCCO2 [Compound 268, (3R,3aS,6aR)hexahydrofuro[2,3-b]furan-3-yl N-(1S,2R)-1-benzyl-3-[(2,3-dihydro-1,4-benzodioxin-6-ylsulfonyl)(5-[(dimethylamino)carbonyl]amino-2,2-dimethylpentyl)amino]-2-hydroxypropylcarbamate]
- IC50 [1, 4]: ≤ 100 nM
- Ki [2, 3]: < 1 nM

Structure (SMILES): CC(C)(CCCNS(C)(=O)=O)CN(C[C@@H](O)[C@H](Cc1ccccc1)NC(=O)O[C@H]1CO[C@H]2OCC[C@H]21)S(=O)(=O)c1ccc2c(c1)OCCO2 [Compound 271, (3R,3aS,6aR)hexahydrofuro[2,3-b]furan-3-yl N-[(1S,2R)-3-((2,3-dihydro-1,4-benzodioxin-6-ylsulfonyl)2,2-dimethyl-5-[(methylsulfonyl)amino]pentylamino)-1-benzyl-2-hydroxypropyl]carbamate]
- IC50 [1, 4]: ≤ 100 nM
- Ki [2, 3]: < 1 nM

Structure (SMILES): COc1ccc(S(=O)(=O)N(CC(C)CCC#N)CC(O)C(Cc2ccccc2)NC(=O)OC(C)(C)C)cc1 [Compound 2, ter-Butyl N-((1S,2R)-1-benzyl-3-[(2RS)-(4-cyano-2-methylbutyl)][(4-methoxyphenyl)sulfonyl]amino-2-hydroxypropyl)carbamate]
- IC50 [1, 4]: > 1000 nM
- Ki [2, 3]: < 1 nM

Structure (SMILES): CC(=O)Nc1cc(S(=O)(=O)N(C[C@@H](O)[C@H](Cc2ccccc2)NC(=O)O[C@H]2CO[C@H]3OCC[C@H]32)CC(C)(C)CCC#N)ccc1F [Compound 30, {(1S,2R)-3-[(3-Acetylamino-4-fluoro-benzenesulfonyl)-(4-cyano-2,2-dimethyl-butyl)-amino]-1-benzyl-2-hydroxy-propyl}-carbamic acid (3R,3aS,6aR)hexahydro-furo[2,3-b]furan-3-yl ester]
- IC50 [1, 4]: ≤ 100 nM
- Ki [2, 3]: < 1 nM

Structure (SMILES): CCN(C(=O)OC(C)(C)C)c1cccc(S(=O)(=O)N(CC(O)C(Cc2ccccc2)NC(=O)OC2COC3OCCC23)CC(C)(C)CCC#N)c1 [Compound 43, {(1S,2R)-3-[(3-N-tert-butoxycarbonyl-N-ethylaminophenyl)sulfonyl]-(4-cyano-2,2-dimethyl-butyl)-amino]-1-benzyl-2-hydroxy-propyl}-carbamic acid (3R,3aS,6aR)hexahydro-furo[2,3-b]furan-3-yl ester]
- IC50 [1, 4]: 100 to 500 nM
- Ki [2, 3]: < 1 nM

Structure (SMILES): CNC(=O)CNC(=O)NCCCC(C)(C)CN(CC(O)C(Cc1ccccc1)NC(=O)OC1COC2OCCC12)S(=O)(=O)c1ccc(OC)cc1 [Compound 225, (3R,3aS,6aR)hexahydrofuro[2,3-b]furan-3-yl N-(1S,2R)-1-benzyl-2-hydroxy-4-[(4-methoxyphenyl)sulfonyl]-6,6-dimethyl-11,14-dioxo-4,10,12,15-tetraazahexadec-1-ylcarbamate and (3S,3aR,6aS)hexahydrofuro[2,3-b]furan-3-yl N-(1S,2R)-1-benzyl-2-hydroxy-4-[(4-methoxyphenyl)sulfonyl]-6,6-dimethyl-11,14-dioxo-4,10,12,15-tetraazahexadec-1-ylcarbamate]
- IC50 [1, 4]: > 1000 nM
- Ki [2, 3]: < 1 nM

Structure (SMILES): COc1ccc(S(=O)(=O)N(CC(O)C(Cc2ccccc2)NC(=O)OC2COC3OCCC23)CC(C)(C)CCCNC(=O)OC(C)C)cc1 [Compound 243, (3R,3aS,6aR)hexahydrofuro[2,3-b]furan-3-yl N-((1S,2R)-1-benzyl-2-hydroxy-3-5-[(isopropoxycarbonyl)amino]-2,2-dimethylpentyl[(4-methoxyphenyl)sulfonyl]aminopropyl)carbamate and (3S,3aR,6aS)hexahydrofuro[2,3-b]furan-3-yl N-((1S,2R)-1-benzyl-2-hydroxy-3-5-[(isopropoxycarbonyl)amino]-2,2-dimethylpentyl[(4-methoxyphenyl)sulfonyl]aminopropyl)carbamate]
- IC50 [1, 4]: ≤ 100 nM
- Ki [2]: < 1 nM

Structure (SMILES): CCC(CCC(C)=O)CN(CC(O)[C@H](Cc1ccccc1)NC(=O)OC1CCOC1)S(=O)(=O)c1ccc(OC)cc1 (stereo partly drawn) [Compound 206, (3S)-Tetrahydro-3-furanyl N-((1S,2R)-1-benzyl-3-(2-ethyl-5-oxohexyl)[(4-methoxyphenyl)sulfonyl]amino-2-hydroxypropyl)carbamate]
- IC50 [1, 4]: ≤ 100 nM
- Ki [2, 3]: < 1 nM
